Data: patent US9428501B2, “Bicyclic nitrogen-containing aromatic heterocyclic amide compound” (ASTELLAS PHARMA INC., priority 2013, dated 2016)
Read-outs that look alike come from different tables or passages of the source.

Columns and labels:
[1] = target: human mitochondrial Complex I (Homo sapiens, UniProt O75251+O75306+P03886); assay type: biochemical
Protocol: Mitochondria was extracted from MDA-MB-453 tumor, and the Complex I inhibitory activity of the test compound was evaluated.
Human PIK3CA mutation-positive breast cancer cell line MDA-MB-453 cells were subcutaneously implanted into nude mice, MDA-MB-453 tumor was excised, a mitochondria extraction solution (0.25 M Sucrose, 2 mM EDTA, 10 mM Tris/HCl pH 7.5) of 9 times of tumor weight was added thereto, and crushing was carried out thereon. The reaction mixture was centrifuged at 600×g and 4° C. for 10 minutes to obtain a supernatant, and the supernatant was centrifuged at 14000×g and 4° C. for 10 minutes, thereby obtaining a pellet. The pellet was suspended in 10 mM Tris/HCl pH 7.5 of 5 times of the excised tumor weight, thereby obtaining a human mitochondrial suspension.
Next, 25 μl of the human mitochondrial suspension per 1 ml of Complex I activity measurement solution (200 mM potassium phosphate pH 7.6, 0.35% Bovine Serum Albumin (BSA), 60 μM 2,6-dichlorophenol-indophenol, 70 μM decylubiquinone, 1 μM antimycin) was added. After dispensed into a 96 or 384-well plate, a test compound (from 10000 nM to 0.3 nM) and DMSO which is a solvent for the test compound as a negative control were added such that a final concentration of Rotenone which is a Complex I inhibitor as a positive control becomes 1 μM. Further, NADH was added so as to have a final concentration of 0.2 mM, and a change in absorbance at a wavelength of 600 nm using SpectraMax (manufactured by Molecular Devices LLC) set to 37° C. in advance was measured. […] Moreover, in the Table, Ex indicates Example No. (the same shall apply hereinafter.).

AMPK = assay: Evaluation of AMPK activation effect (phosphorylation of ACC Ser79, Cell ELISA in MDA-MB-453 cells); assay type: cell-based, human; conditions: 2 hours
Protocol: By measuring phosphorylation of 79th serine (Ser79) of Acetyl-CoA Carboxylase (ACC) which is a substrate of AMPK with Cell ELISA, the AMPK activation effect by the test compound was evaluated.
In order to make MDA-MB-453 cell become 15000 cells per well, each 36 μl was seeded in Leibovitz's L-15 medium including 10% fetal bovine serum (manufactured by Life Technologies Corp.) in a 384 well plate, followed by culturing at 37° C. overnight in the absence of CO2. […] After the incubation, 20 μl of a 40% glyoxal solution (Nacalai Tesque) was added to each well, and then cells were fixed by leaving to stand at room temperature for 30 minutes. Thereafter, the supernatant was removed by centrifuging the plate, and then 0.1% Triton X-100-containing Phosphate-Buffered Saline (PBS) was added to each well by 20 followed by incubating at room temperature for 10 minutes. The 0.1% Triton X-100-containing PBS was removed by centrifuging for 8 seconds at 800 rpm (all solution removal operation by centrifuge described below were carried out under the same conditions), and then a blocking solution (ODYSSEY Blocking Buffer; manufactured by Li—COR Biosciences) was added to each well by 20 μl, followed by leaving to stand at room temperature for 1 hour. The blocking solution was removed by centrifuging, with the exception of the blocking solution by centrifugation, and then a blocking solution which was diluted such that the amount of phosphorylation antibody (manufactured by Cell Signaling Technology, Inc) of ACC Ser79 as a primary antibody is 1/500 was added to each well by 10 followed by leaving to stand at 4° C. overnight. The following day, the reaction liquid was removed by centrifuging the plate, and then 0.05% Tween-20-containing Tris-Buffered Saline (TBS) (manufacture by Thermo Scientific Inc.; used in 1× in which 20×TBS Tween-20 was diluted with ion-exchange water) was added to each well by 25 followed by washing each well by centrifugal removal. The washing of each well was repeated for a total of 3 times. After washing, a blocking solution which was diluted such that the amount of IRDye 800CW Goat anti-Rabbit IgG (manufactured by Li—CoR Biosciences) as a secondary antibody is 1/1000 was added to each well by 10 μl, followed by leaving to stand at room temperature for 1 hour. After the secondary antibody reaction, the reaction liquid was removed by centrifuging the plate, and then each well was washed three times with 0.05% Tween-20-containing TBS in the same manner as after the primary antibody reaction. After the washing solution was removed, without change, the plate was air-dried at room temperature for 3 hours or longer and signals were measured by Aerius (manufactured by Li—CoR Biosciences).

[2] = tested on: human PIK3CA mutation-positive breast cancer cell line MDA-MB-453 cells; assay: Scaffold independent cell proliferation inhibitory effect, MDA-MB-453 cells; assay type: cell-based; conditions: non-adhesive plate, 4 days, CellTiter-Glo, read-out: IC50 (cell proliferation inhibition)
Protocol: The effect on proliferation of cancer cells of the test compound was evaluated.
Measurement (colony method) of the scaffold independent cell proliferation is known as a system in which the anti-cancer effect of the test compound is examined. As a method for measuring cell-non-adhesive proliferation substituting the colony method, there is a method of using a non-adhesive plate as follows.
Thereafter, the cells were cultured for 4 days at 37° C. in the absence of CO2, and a cytometric reagent (CellTiter-Glo Luminescent Cell Viability assay manufactured by Promega Corporation) was added. The resultant product was stirred for 30 minutes, and then measurement was carried out using a luminescence measurement apparatus (ARVO manufactured by Perkin Elmer Inc.).

MDA-MB-453 cells = assay: Anti-tumor effect in MDA-MB-453 cell cancer-bearing mouse; assay type: in vivo; conditions: oral, once a day for 15 days, Balb/c nude mouse
Protocol: 3×10^6 cells of MDA-MB-453 cells which were suspended with PBS were subcutaneously injected to be planted in the back of a 5 to 6 weeks old male Balb/c nude mouse (provided by Charles River Laboratories, Japan). 10 days after planting, the test compound was administered. The test was carried out on respective five mice of the solvent group and the test compound administered group, and 6% aqueous cyclodextrin solution was administered to the solvent group, and a mixture of 6% aqueous cyclodextrin solution and the test compound (1 or 3 mg/kg) was orally administered to the test compound administered group. Administration was carried out once a day for 15 days, and body weight and tumor size were measured approximately every other day. The following equation was used to calculate the tumor volume.

[3] = mitochondria from MDA-MB-453 tumor, absorbance 600 nm, 37° C.; read-out: IC50 (Complex I inhibition)

Chain of human mitochondrial Complex I (O75251 39-213 limits assumed): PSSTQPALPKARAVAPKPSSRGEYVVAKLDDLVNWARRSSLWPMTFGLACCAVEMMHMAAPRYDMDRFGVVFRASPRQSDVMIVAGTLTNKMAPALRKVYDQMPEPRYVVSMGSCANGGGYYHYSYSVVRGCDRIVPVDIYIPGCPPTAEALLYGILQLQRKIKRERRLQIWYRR
Chain of human mitochondrial Complex I (O75306 34-463 limits assumed): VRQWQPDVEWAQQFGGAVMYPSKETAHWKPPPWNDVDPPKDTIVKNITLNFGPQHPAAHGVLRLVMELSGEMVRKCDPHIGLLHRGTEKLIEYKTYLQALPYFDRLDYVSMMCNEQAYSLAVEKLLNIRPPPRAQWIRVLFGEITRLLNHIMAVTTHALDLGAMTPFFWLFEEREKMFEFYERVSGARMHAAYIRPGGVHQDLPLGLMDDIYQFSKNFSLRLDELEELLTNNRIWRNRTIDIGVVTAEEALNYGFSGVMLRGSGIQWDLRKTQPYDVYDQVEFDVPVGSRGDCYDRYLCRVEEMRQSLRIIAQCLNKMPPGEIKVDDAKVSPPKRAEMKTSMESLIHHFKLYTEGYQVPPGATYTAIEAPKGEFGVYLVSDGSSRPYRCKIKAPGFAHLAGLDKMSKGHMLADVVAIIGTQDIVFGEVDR
Chain of human mitochondrial Complex I (P03886 whole entry): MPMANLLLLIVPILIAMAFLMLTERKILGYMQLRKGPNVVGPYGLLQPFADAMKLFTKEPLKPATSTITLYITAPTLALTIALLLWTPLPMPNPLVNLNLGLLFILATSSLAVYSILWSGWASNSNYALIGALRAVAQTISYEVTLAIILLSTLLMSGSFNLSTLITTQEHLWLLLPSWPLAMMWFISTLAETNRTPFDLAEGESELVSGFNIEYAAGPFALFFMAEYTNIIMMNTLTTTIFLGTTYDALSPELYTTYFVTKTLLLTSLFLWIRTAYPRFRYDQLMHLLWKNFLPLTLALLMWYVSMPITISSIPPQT

| SMILES | IC50 [1, 3] | EC50 (AMPK) | IC50 ([2]; Homo sapiens, 96 h) | further results |
| --- | --- | --- | --- | --- |
| COc1cnc(CN2CCC(c3ccc4c(c3)cc(C(=O)N3CCN(Cc5ccc(C#N)cc5)CC3)n4C)CC2)cn1 [Ex 79] | 120 nM | 3.3 nM |  | IC50 [2]: 7.8 nM; Anti-tumor effect, regression rate (MDA-MB-453 cells; 1 mg/kg): 43% regression |
| COc1ccc(CN2CCC(c3ccc4[nH]c(C(=O)N5CCN(Cc6ccc(C(F)(F)F)cc6)CC5)nc4c3)CC2)cn1 [Example 1, (5-{1-[(6-methoxypyridin-3-yl)methyl]piperidin-4-yl}-1H-benzimidazol-2-yl){4-[4-(trifluoromethyl)benzyl]piperazin-1-yl}methanone ditosylate] |  |  |  | Anti-tumor effect, regression rate (MDA-MB-453 cells; 3 mg/kg): 26% regression |
| COc1cnc(CN2CCC(c3ccc4[nH]c(C(=O)N5CCN(Cc6ccc(C(F)(F)F)cc6)CC5)nc4c3)CC2)cn1 [Example 7, (5-{1-[(5-methoxypyrazin-2-yl)methyl]piperidin-4-yl}-1H-benzimidazol-2-yl){4-[4-(trifluoromethyl)benzyl]piperazin-1-yl}methanone ditosylate] | 75 nM |  | 12 nM | Anti-tumor effect, regression rate (MDA-MB-453 cells; 3 mg/kg): 49% regression |
| Cc1cnc(CN2CCC(c3ccc4nc(C(=O)N5CCN(Cc6ccc(C(F)(F)F)cc6)CC5)[nH]c4c3)CC2)cn1.Cl.Cl.Cl [Example 8, (6-{1-[(5-methylpyrazin-2-yl)methyl]piperidin-4-yl}-1H-benzimidazol-2-yl){4-[4-(trifluoromethyl)benzyl]piperazin-1-yl}methanone trihydrochloride] |  | 13 nM | 26 nM | IC50 ([1]; read-out: IC50 (Complex I inhibition); mitochondria from MDA-MB-453 tumor, absorbance 600 nm, 37° C.): 83 nM; Anti-tumor effect, inhibition rate (MDA-MB-453 cells; 3 mg/kg): 88% inhibition |
| COc1ccc(CN2CCC(c3ccc4nc(C(=O)N5CCN(Cc6ccc(C(F)(F)F)cc6)CC5)[nH]c4c3)CC2)cc1 [Example 14] |  | 34 nM | 7.6 nM |  |
| COc1ccc(CN2CCC(c3ccc4nc(C(=O)N5CCN(Cc6ccc(C(F)(F)F)cc6)CC5)n(C)c4c3)CC2)cn1 [Example 18] |  | 3 nM |  |  |
| COc1ccc(CN2CCC(c3ccc4c(c3)nc(C(=O)N3CCN(Cc5ccc(C(F)(F)F)cc5)CC3)n4C)CC2)cn1 [Example 19] |  | 10 nM | 8.5 nM |  |
| COc1ccc(CN2CCC(c3ccc4nc(C(=O)N5CCN(Cc6ccc(C#N)cc6)CC5)[nH]c4c3)CC2)cn1 [Example 23] | 160 nM | 19 nM | 40 nM |  |
| COc1ccc(CN2CCC(c3ccc4nc(C(=O)N5CCN(Cc6ccc(C(F)(F)F)cc6)CC5)cn4c3)CC2)cn1 [Example 35] |  | 3.6 nM |  |  |
| COc1ccc(CN2CCC(c3ccn4cc(C(=O)N5CCN(Cc6ccc(C(F)(F)F)cc6)CC5)nc4c3)CC2)cn1 [Example 36, (7-{1-[(6-methoxypyridin-3-yl)methyl]piperidin-4-yl}imidazo[1,2-a]pyridin-2-yl){4-[4-(trifluoromethyl)benzyl]piperazin-1-yl}methanone ditosylate] | 55 nM | 5.1 nM | 11 nM | Anti-tumor effect, regression rate (MDA-MB-453 cells; 3 mg/kg): 10% regression |
| COc1ccc(CN2CCC(c3ccc4nc(C(=O)N5CCN(Cc6ccc7c(c6)OC(F)(F)O7)CC5)[nH]c4c3)CC2)cn1 [Example 37] | 29 nM | 10 nM | 8.9 nM |  |
| COc1ccc(CN2CCC(c3ccc4nc(C(=O)N5CCN(Cc6ccc(C(F)(F)F)cc6F)CC5)[nH]c4c3)CC2)cn1 [Example 38] | 59 nM | 13 nM | 8.1 nM |  |
| COc1ccc(CN2CCC(c3cc4cc(C(=O)N5CCN(Cc6ccc(C(F)(F)F)cc6)CC5)n(C)c4cn3)CC2)cn1 [Example 44] | 87 nM | 5.2 nM | 4.2 nM |  |
| COc1ccc(CN2CCC(c3ccn4nc(C(=O)N5CCN(Cc6ccc(C(F)(F)F)cc6)CC5)cc4c3)CC2)cn1 [Example 49] | 18 nM | 6.5 nM | 2.8 nM |  |
| COc1cnc(CN2CCC(c3ccn4nc(C(=O)N5CCN(Cc6ccc(C(F)(F)F)cc6)CC5)cc4c3)CC2)cn1 [Example 50] |  | 14 nM | 4 nM |  |
| COc1ccc(CN2CCC(n3cc4cc(C(=O)N5CCN(Cc6ccc(C(F)(F)F)cc6)CC5)ccc4n3)CC2)cn1 [Example 57] |  | 1.8 nM |  |  |
| CCOc1cnc(CN2CCC(n3cc4cc(C(=O)N5CCN(Cc6ccc(C(F)(F)F)cc6)CC5)ccc4n3)CC2)cn1 [Example 58] |  | 0.86 nM | 0.55 nM |  |
| CCOc1cnc(CN2CCC(c3ccc4c(c3)cc(C(=O)N3CCN(Cc5ccc(C#N)cc5)CC3)n4C)CC2)cn1 [Example 66] | 120 nM | 2.8 nM | 6.2 nM | Anti-tumor effect, regression rate (MDA-MB-453 cells; 1 mg/kg): 91% regression |
| CCOc1cnc(CN2CCC(c3ccc4cc(C(=O)N5CCN(Cc6ccc(C#N)cc6)CC5)n(C)c4c3)CC2)cn1 [Example 69] | 22 nM |  | 3.2 nM | Anti-tumor effect, regression rate (MDA-MB-453 cells; 1 mg/kg): 87% regression |
